Results as given in PubChem BioAssay (NCI).
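Method: 48-hour compound exposure of cells in 96-well plates, five concentrations, linear interpolation of endpoints. TGI denotes the concentration required for complete inhibition of growth.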

Tests used:
Experiment in all cases: NCI-60 cell line screen, 48 h
786-0 renal = tested on: 786-0 renal
ACHN renal = tested on: ACHN renal
BT-549 breast = tested on: BT-549 breast
COLO 205 colon = tested on: COLO 205 colon
KM12 colon = tested on: KM12 colon
M14 melanoma = tested on: M14 melanoma
MALME-3M melanoma = tested on: MALME-3M melanoma
NCI-H23 lung = tested on: NCI-H23 lung
PC-3 prostate = tested on: PC-3 prostate
SF-268 CNS = tested on: SF-268 CNS
SF-539 CNS = tested on: SF-539 CNS
SK-OV-3 ovarian = tested on: SK-OV-3 ovarian
SN12C renal = tested on: SN12C renal
T-47D breast = tested on: T-47D breast
UACC-257 melanoma = tested on: UACC-257 melanoma
A498 renal = tested on: A498 renal
SK-MEL-2 melanoma = tested on: SK-MEL-2 melanoma
SR leukemia = tested on: SR leukemia

CN1C(=O)C(c2c[nH]c3ccccc23)N(C)C(=O)C1c1c[nH]c2ccccc12 (stereo not given)
TGI (786-0 renal): > 100 µM
TGI (ACHN renal): > 100 µM
TGI (BT-549 breast): > 100 µM
TGI (COLO 205 colon): > 100 µM
TGI (KM12 colon): > 100 µM
TGI (M14 melanoma): > 100 µM
TGI (MALME-3M melanoma): > 100 µM
TGI (NCI-H23 lung): > 100 µM
TGI (PC-3 prostate): > 100 µM
TGI (SF-268 CNS): > 100 µM
TGI (SF-539 CNS): > 100 µM
TGI (SK-OV-3 ovarian): > 100 µM
TGI (SN12C renal): > 100 µM
TGI (T-47D breast): > 100 µM
TGI (UACC-257 melanoma): > 100 µM

Cc1ccc(N(C(=O)Nc2ccc(F)c(Cl)c2)C2=NCC(C)S2)cc1 (stereo not given)
TGI (786-0 renal): > 100 µM
TGI (A498 renal): > 100 µM
TGI (ACHN renal): > 100 µM
TGI (COLO 205 colon): > 100 µM
TGI (KM12 colon): > 100 µM
TGI (MALME-3M melanoma): > 100 µM
TGI (NCI-H23 lung): > 100 µM
TGI (PC-3 prostate): > 100 µM
TGI (SF-268 CNS): > 100 µM
TGI (SF-539 CNS): > 100 µM
TGI (SK-MEL-2 melanoma): > 100 µM
TGI (SK-OV-3 ovarian): > 100 µM
TGI (SN12C renal): > 100 µM
TGI (SR leukemia): > 100 µM
TGI (T-47D breast): > 100 µM
TGI (UACC-257 melanoma): > 100 µM

NC(=S)N/N=C1/CCCC2CCCC[C@@H]12 (stereo not given in full)
TGI (786-0 renal): > 100 µM
TGI (A498 renal): > 100 µM
TGI (ACHN renal): > 100 µM
TGI (COLO 205 colon): > 100 µM
TGI (KM12 colon): > 100 µM
TGI (M14 melanoma): > 100 µM
TGI (MALME-3M melanoma): > 100 µM
TGI (NCI-H23 lung): > 100 µM
TGI (PC-3 prostate): > 100 µM
TGI (SF-268 CNS): > 100 µM
TGI (SF-539 CNS): > 100 µM
TGI (SK-MEL-2 melanoma): > 100 µM
TGI (SK-OV-3 ovarian): > 100 µM
TGI (SR leukemia): > 100 µM
TGI (T-47D breast): > 100 µM
TGI (UACC-257 melanoma): > 100 µM

COc1ccc(N2C(=O)C3c4[nH]c5ccccc5c4C4CC(C)CC(C)C4C3C2=O)cc1 (stereo not given)
TGI (786-0 renal): > 100 µM
TGI (A498 renal): > 100 µM
TGI (ACHN renal): > 100 µM
TGI (COLO 205 colon): > 100 µM
TGI (M14 melanoma): > 100 µM
TGI (MALME-3M melanoma): > 100 µM
TGI (NCI-H23 lung): > 100 µM
TGI (SF-268 CNS): > 100 µM
TGI (SF-539 CNS): > 100 µM
TGI (SK-OV-3 ovarian): > 100 µM
TGI (SN12C renal): > 100 µM
TGI (SR leukemia): > 100 µM
TGI (UACC-257 melanoma): > 100 µM

CC(O)c1ccc[n+](Cc2ccccc2)c1 (stereo not given)
TGI (786-0 renal): > 400 µM
TGI (ACHN renal): > 400 µM
TGI (COLO 205 colon): > 400 µM
TGI (KM12 colon): > 400 µM
TGI (MALME-3M melanoma): > 400 µM
TGI (NCI-H23 lung): > 400 µM
TGI (SF-268 CNS): > 400 µM
TGI (SF-539 CNS): > 400 µM
TGI (SK-MEL-2 melanoma): > 400 µM
TGI (SK-OV-3 ovarian): > 400 µM
TGI (SN12C renal): > 400 µM
TGI (SR leukemia): > 400 µM
TGI (UACC-257 melanoma): > 400 µM

O=C1CCCC1C(O)(C(F)(F)F)C(F)(F)F (stereo not given)
TGI (786-0 renal): > 100 µM
TGI (A498 renal): > 100 µM
TGI (ACHN renal): > 100 µM
TGI (COLO 205 colon): > 100 µM
TGI (KM12 colon): > 100 µM
TGI (M14 melanoma): > 100 µM
TGI (MALME-3M melanoma): > 100 µM
TGI (NCI-H23 lung): > 100 µM
TGI (PC-3 prostate): > 100 µM
TGI (SF-268 CNS): > 100 µM
TGI (SF-539 CNS): > 100 µM
TGI (SK-MEL-2 melanoma): > 100 µM
TGI (SN12C renal): > 100 µM
TGI (SR leukemia): > 100 µM
TGI (T-47D breast): > 100 µM
TGI (UACC-257 melanoma): > 100 µM

NC(=O)C1Cc2cc3c(cc21)OCO3 (stereo not given)
TGI (786-0 renal): > 100 µM
TGI (ACHN renal): > 100 µM
TGI (BT-549 breast): > 100 µM
TGI (COLO 205 colon): > 100 µM
TGI (KM12 colon): > 100 µM
TGI (M14 melanoma): > 100 µM
TGI (MALME-3M melanoma): > 100 µM
TGI (NCI-H23 lung): > 100 µM
TGI (PC-3 prostate): > 100 µM
TGI (SF-268 CNS): > 100 µM
TGI (SF-539 CNS): > 100 µM
TGI (SK-OV-3 ovarian): > 100 µM
TGI (UACC-257 melanoma): > 100 µM

O=S(Nc1ccccc1)c1ccc(Cl)c(Cl)c1 (stereo not given)
TGI (786-0 renal): > 100 µM
TGI (ACHN renal): > 100 µM
TGI (BT-549 breast): 54.4 µM
TGI (COLO 205 colon): > 100 µM
TGI (KM12 colon): 33.1 µM
TGI (M14 melanoma): > 100 µM
TGI (MALME-3M melanoma): > 100 µM
TGI (NCI-H23 lung): > 100 µM
TGI (SF-268 CNS): 82.9 µM
TGI (SF-539 CNS): 53 µM
TGI (SK-MEL-2 melanoma): > 100 µM
TGI (SN12C renal): > 100 µM
TGI (SR leukemia): > 100 µM
TGI (T-47D breast): 42.4 µM
TGI (UACC-257 melanoma): > 100 µM

CCN(CC)c1c(-c2c(N(CC)CC)c(OC(C)=O)c3sccn3c2=O)c(=O)n2ccsc2c1OC(C)=O
TGI (786-0 renal): 90.1 µM
TGI (A498 renal): > 100 µM
TGI (ACHN renal): > 100 µM
TGI (BT-549 breast): > 100 µM
TGI (COLO 205 colon): > 100 µM
TGI (KM12 colon): > 100 µM
TGI (M14 melanoma): > 100 µM
TGI (MALME-3M melanoma): > 100 µM
TGI (NCI-H23 lung): > 100 µM
TGI (PC-3 prostate): > 100 µM
TGI (SF-268 CNS): > 100 µM
TGI (SF-539 CNS): > 100 µM
TGI (SK-MEL-2 melanoma): > 100 µM
TGI (SK-OV-3 ovarian): > 100 µM
TGI (SN12C renal): > 100 µM
TGI (UACC-257 melanoma): > 100 µM

Nc1ncnc2c1ncn2C1OC(CO)C(O)C(O)C1O (stereo not given)
TGI (786-0 renal): > 100 µM
TGI (A498 renal): > 100 µM
TGI (ACHN renal): > 100 µM
TGI (BT-549 breast): > 100 µM
TGI (COLO 205 colon): > 100 µM
TGI (KM12 colon): > 100 µM
TGI (M14 melanoma): > 100 µM
TGI (MALME-3M melanoma): > 100 µM
TGI (NCI-H23 lung): > 100 µM
TGI (PC-3 prostate): > 100 µM
TGI (SF-268 CNS): > 100 µM
TGI (SF-539 CNS): > 100 µM
TGI (SK-MEL-2 melanoma): > 100 µM
TGI (SN12C renal): > 100 µM
TGI (SR leukemia): > 100 µM
TGI (UACC-257 melanoma): > 100 µM

CN(C(=O)C1CCCCCC1=O)c1ccccc1Cl (stereo not given)
TGI (786-0 renal): > 100 µM
TGI (A498 renal): > 100 µM
TGI (ACHN renal): > 100 µM
TGI (BT-549 breast): > 100 µM
TGI (COLO 205 colon): > 100 µM
TGI (KM12 colon): > 100 µM
TGI (M14 melanoma): > 100 µM
TGI (MALME-3M melanoma): > 100 µM
TGI (NCI-H23 lung): > 100 µM
TGI (SF-268 CNS): > 100 µM
TGI (SF-539 CNS): > 100 µM
TGI (SK-OV-3 ovarian): > 100 µM
TGI (SN12C renal): > 100 µM
TGI (T-47D breast): > 100 µM
TGI (UACC-257 melanoma): > 100 µM

Cc1ccc2c(c1)CC1(Cc3c(C)cccc3C1=O)C2=O (stereo not given)
TGI (786-0 renal): > 100 µM
TGI (A498 renal): > 100 µM
TGI (ACHN renal): > 100 µM
TGI (COLO 205 colon): > 100 µM
TGI (KM12 colon): > 100 µM
TGI (M14 melanoma): > 100 µM
TGI (MALME-3M melanoma): > 100 µM
TGI (NCI-H23 lung): > 100 µM
TGI (PC-3 prostate): > 100 µM
TGI (SF-268 CNS): > 100 µM
TGI (SF-539 CNS): > 100 µM
TGI (SK-OV-3 ovarian): > 100 µM
TGI (SN12C renal): > 100 µM
TGI (SR leukemia): > 100 µM
TGI (T-47D breast): > 100 µM
TGI (UACC-257 melanoma): > 100 µM

NC(CCC(=O)NC(CSC(=O)N(O)c1ccccc1)C(=O)NCC(=O)O)C(=O)O (stereo not given)
TGI (786-0 renal): > 1000 µM
TGI (A498 renal): > 1000 µM
TGI (ACHN renal): > 1000 µM
TGI (COLO 205 colon): > 1000 µM
TGI (KM12 colon): > 1000 µM
TGI (M14 melanoma): > 1000 µM
TGI (MALME-3M melanoma): > 1000 µM
TGI (NCI-H23 lung): > 1000 µM
TGI (SF-268 CNS): > 1000 µM
TGI (SF-539 CNS): > 1000 µM
TGI (SK-MEL-2 melanoma): > 1000 µM
TGI (SK-OV-3 ovarian): > 1000 µM
TGI (SN12C renal): > 1000 µM
TGI (SR leukemia): > 1000 µM
TGI (UACC-257 melanoma): > 1000 µM

C/C(=N\NC(=O)c1ccncc1)c1ccccc1F
TGI (786-0 renal): > 10 µM
TGI (A498 renal): > 10 µM
TGI (ACHN renal): > 10 µM
TGI (COLO 205 colon): > 10 µM
TGI (KM12 colon): > 10 µM
TGI (M14 melanoma): > 10 µM
TGI (MALME-3M melanoma): > 10 µM
TGI (NCI-H23 lung): > 10 µM
TGI (PC-3 prostate): > 10 µM
TGI (SF-268 CNS): > 10 µM
TGI (SF-539 CNS): > 10 µM
TGI (SK-MEL-2 melanoma): > 10 µM
TGI (SK-OV-3 ovarian): > 10 µM
TGI (SN12C renal): > 10 µM
TGI (SR leukemia): > 10 µM
TGI (T-47D breast): > 10 µM

COc1ccc2c(c1)Oc1cc(O)ccc1[C@@H]2c1ccccc1C(=O)NC(C)c1ccccc1 (stereo not given in full)
TGI (786-0 renal): 27.9 µM
TGI (A498 renal): 32.1 µM
TGI (ACHN renal): 41.1 µM
TGI (COLO 205 colon): 32.9 µM
TGI (KM12 colon): 33.9 µM
TGI (M14 melanoma): 24.6 µM
TGI (MALME-3M melanoma): 31.3 µM
TGI (NCI-H23 lung): 35.5 µM
TGI (SF-268 CNS): 52.8 µM
TGI (SF-539 CNS): 31 µM
TGI (SK-MEL-2 melanoma): 46.6 µM
TGI (SK-OV-3 ovarian): 49.1 µM
TGI (SN12C renal): 28.6 µM
TGI (UACC-257 melanoma): 32.7 µM
